Our source for the cytotoxicity values is ChEMBL document CHEMBL3507680, “University of Dundee, Gates Library screen for HepG2 cell viability”.

Molecules are shown by their SMILES.

This data set is described as follows: Human HepG2 cell viability assay in 384 well format. Format: toxicity, cell-based. Set-up: dose 125 nL, time 70.5 hour; cytotoxicity at 70.5 h: concentration not given beside the values. The note with it: HepG2 cells, read-out: Inhibition.
On to `Cc1cc(CNC(=O)C2CCC(=O)N(Cc3ccccc3F)C2)on1` (stereo unspecified), for which the cytotoxicity at 70.5 h was -2.07%.

Consider `CCc1cc(CNC(=O)C2CCC(=O)N(Cc3ccccc3F)C2)on1` (stereo unspecified), for which the cytotoxicity at 70.5 h is -9.72%.

With `Cc1cc(C)c(Cn2cncn2)cc1CN1CCC(CN)C1` (stereo unspecified), the cytotoxicity at 70.5 h is -0.164%.

For the molecule `N#Cc1cccc(NC2CC(=O)N(CCc3ccc(F)cc3)C2)n1` (stereo unspecified), the cytotoxicity at 70.5 h worked out at 28.1%.

As for `Cc1nsc(NC(=O)NC2CCCOC2)n1` (stereo unspecified), the cytotoxicity at 70.5 h amounted to 23%.

In the case of `Cc1nnc(SCCCNc2cc(C3CC3)ncn2)s1`, the cytotoxicity at 70.5 h turned out to be 22.4%.

With `COc1nc2c(cc1C(=O)NCc1noc(Cc3cccs3)n1)CCC2`, the cytotoxicity at 70.5 h was -3.41%.

With `CC(c1nncn1C)n1cc(-c2cc(CN3CCCC3)cs2)nn1` (stereo unspecified), the cytotoxicity at 70.5 h worked out at 15.8%.

For the molecule `Cc1cccc(C)c1OC1CN(C(=O)C2CCCN(C(=O)N(C)C)C2)C1` (stereo unspecified), the cytotoxicity at 70.5 h was -9.46%.

`COCc1ncc(CN2CCC(Oc3ccc(OC)cc3)CC2)cn1`: the cytotoxicity at 70.5 h was -20.2%.

For the molecule `O=C(c1ccc(S(=O)(=O)NCC(F)F)cc1)N1C[C@H]2CNC[C@H]2C1`, the cytotoxicity at 70.5 h is -1.24%.

As for `COc1ccc(N2CCN(C(=O)[C@@H]3C[C@@H](O)CN3)CC2(C)C)cc1`, the cytotoxicity at 70.5 h came out at 6.62%.

Regarding `Cc1cc(C(=O)N2C[C@@H](CN(C)CCN(C)C)[C@@H](CO)C2)nc(C)n1`, the cytotoxicity at 70.5 h stood at 21.1%.

On to `CC(C)c1nc(CN(C)C(=O)CNC(N)=O)cs1`, for which the cytotoxicity at 70.5 h is -6.72%.

For `CCn1c(C)nnc1SCCNC(=O)Cn1cnc2ccccc2c1=O`, the cytotoxicity at 70.5 h is -4.84%.

Consider `CN(Cc1nc(CC2CC2)no1)CC1Cc2ccccc2O1` (stereo unspecified), for which the cytotoxicity at 70.5 h is -6.88%.

With `O=C(NCc1cnn2cccnc12)C1CC2(CCNCC2)CN1` (stereo unspecified), the cytotoxicity at 70.5 h was -4.05%.

In the case of `CC(C)n1cnnc1CN(C)C(=O)c1cccnc1O`, the cytotoxicity at 70.5 h was -4.11%.

Take `Cn1ccnc1C1CCN(S(=O)(=O)c2ccc3c(c2)OCCO3)CC1`: the cytotoxicity at 70.5 h worked out at 9.02%.

Turning to `CN(C)c1nc2c(c(N3CCC(O)CC3)n1)CN(CC1CCOC1)CC2` (stereo unspecified), the cytotoxicity at 70.5 h was -3.69%.

With `CCC(Nc1nc(CCN)nc2ccccc12)c1cc(C)ccn1` (stereo unspecified), the cytotoxicity at 70.5 h is -5.71%.

For `Cc1ncccc1Oc1ncnc(N2CCC3(CCCO3)CC2)c1C`, the cytotoxicity at 70.5 h was -7.69%.

Consider `Cc1nn(C)cc1-c1ccnc(N2CCN(c3ccccc3)C(=O)C2)n1`, for which the cytotoxicity at 70.5 h is -3.19%.

In the case of `CN(C)C(C(=O)NCC1(O)CCCCC1)c1cccc(F)c1` (stereo unspecified), the cytotoxicity at 70.5 h is -2.16%.

On to `COc1ccc(C(=O)N2C[C@@H](CN3CCCC3)[C@@H](CO)C2)c(C)c1`, for which the cytotoxicity at 70.5 h is -8.12%.

As for `Cc1noc(C)c1CN(Cc1cccnc1)C1CN2CCC1CC2` (stereo unspecified), the cytotoxicity at 70.5 h was 25%.

In the case of `CN(C)S(=O)(=O)N1CC[C@]2(O)CCN(CCCc3cccnc3)C[C@@H]2C1`, the cytotoxicity at 70.5 h is 1.31%.

For the molecule `COCCN(C)Cc1nc(-c2cccc(F)c2F)oc1C`, the cytotoxicity at 70.5 h was -11.3%.

As for `FC(F)C(F)(F)COCc1ncnn1-c1ccc2c(c1)OCO2`, the cytotoxicity at 70.5 h was 6.96%.

Consider `CN(C)c1nc2c(c(N3CCCC4(CC3)CNC(=O)O4)n1)CCCC2` (stereo unspecified), for which the cytotoxicity at 70.5 h was -1.83%.

With `Cn1ccnc1C1CCN(CCC2CCOC2)CC1` (stereo unspecified), the cytotoxicity at 70.5 h is 14.8%.

Turning to `CCCc1nc(C(=O)N2C[C@H](CO)C[C@H](CN3CCOCC3)C2)cs1`, the cytotoxicity at 70.5 h was -8.72%.

As to `C1CCc2nnc(CNc3nc(C4CC4)nc4c3CCNCC4)n2CC1`, the cytotoxicity at 70.5 h was -5.38%.

On to `Cc1cccc(C)c1OC1CN(C(=O)C2CCN(C(=O)N(C)C)CC2)C1`, for which the cytotoxicity at 70.5 h amounted to 29.8%.

As to `CNC(=O)C1CCN(c2cc(C3CCNCC3)nc(C)n2)C1` (stereo unspecified), the cytotoxicity at 70.5 h was -19.2%.

Consider `CCN1Cc2nc(OC)c(CNC(=O)C3CCS(=O)(=O)CC3)cc2C1=O`, for which the cytotoxicity at 70.5 h is -2.6%.

`Cc1cccc(SC2CCN(C(=O)CCCn3cnnn3)CC2)c1`: the cytotoxicity at 70.5 h was -15.1%.

Regarding `Cc1ccn(CCNc2ncnc3c2CCN(Cc2ncc[nH]2)CC3)n1`, the cytotoxicity at 70.5 h was -8.65%.

As for `CC(C)(O)c1cn(C2CCN(C(=O)CCC3CCCC3)CC2)nn1`, the cytotoxicity at 70.5 h amounted to 27%.

In the case of `COc1cccc(C2CCN2C(=O)c2cc(C(C)C)on2)c1` (stereo unspecified), the cytotoxicity at 70.5 h was -0.704%.

Regarding `Cc1nsc(NC(=O)N2CCCCC2CCO)n1` (stereo unspecified), the cytotoxicity at 70.5 h was -6.53%.

For `CN1[C@@H](c2ccccc2)[C@@H](C(=O)NCC2CCOCC2)C[C@@]1(C)C(=O)O`, the cytotoxicity at 70.5 h is -11.8%.

Consider `Cc1ccc(C2(O)CCN(C(=O)c3ccc(S(N)(=O)=O)cc3)CC2)nc1`, for which the cytotoxicity at 70.5 h is -12.2%.

Take `CC(c1ccon1)N(C)S(=O)(=O)NCc1ccccc1` (stereo unspecified): the cytotoxicity at 70.5 h is -2.95%.

With `Cc1cnccc1NCCNC1CCN(CC(C)C)CC1`, the cytotoxicity at 70.5 h turned out to be 2.02%.

For `Cn1cc2ncn([C@H]3CCN(Cc4ccccc4)C3)c(=O)c2n1`, the cytotoxicity at 70.5 h was -6.58%.

For the molecule `CCCn1nccc1C(=O)N1CCN(C2CCc3ccccc3C2)CC1` (stereo unspecified), the cytotoxicity at 70.5 h is -7.89%.

As for `CCC(CO)N(C/C(C)=C/c1ccco1)Cc1ccsc1` (stereo unspecified), the cytotoxicity at 70.5 h was found to be 3.15%.

As to `Cc1cc(C(=O)N2CCCCC2c2nc3cc(F)ccc3[nH]2)no1` (stereo unspecified), the cytotoxicity at 70.5 h is 27.9%.

Regarding `NC1CCCCN(Cc2ccccc2CS(=O)(=O)c2ccccc2)C1` (stereo unspecified), the cytotoxicity at 70.5 h was -8.29%.

Take `CCc1nc(C)c([C@H]2CN(C)C[C@@H]2C(=O)Nc2ccc(OC)nc2)[nH]1`: the cytotoxicity at 70.5 h is -1.87%.

For the molecule `CN1CCC2(CC1)CN(C(=O)c1cccc3cccnc13)CCN2C`, the cytotoxicity at 70.5 h is -8.6%.

As to `O=C(O)c1ccc(N2CCC(Oc3cccc(F)c3)CC2)nc1`, the cytotoxicity at 70.5 h was determined as 14.5%.

Turning to `CCN(CC)C(=O)c1ccc(Cl)c(NC(=O)c2cnc(C)cn2)c1`, the cytotoxicity at 70.5 h is -7.02%.

Consider `CCCn1cc(-c2cc(-c3c[nH]cn3)c(C#N)c(N)n2)c(C)n1`, for which the cytotoxicity at 70.5 h turned out to be 3.58%.

In the case of `CCC(C(=O)NCC1=CCCN(C)C1)c1ccccc1` (stereo unspecified), the cytotoxicity at 70.5 h was -13.4%.

As to `N#Cc1ccnc(N2CCC(NCCN3CCCC3)CC2)c1`, the cytotoxicity at 70.5 h was -6.96%.

For the molecule `Cc1ccc(-c2n[nH]cc2CN(Cc2nccn2C)C(C)C)cc1C`, the cytotoxicity at 70.5 h is -5.49%.

As to `CSCC(=O)N1CCc2nc(C)nc(NCc3ccccc3)c2CC1`, the cytotoxicity at 70.5 h was -5.43%.

For the molecule `CS(=O)(=O)N1CCN(C(=O)c2ccco2)[C@H]2CS(=O)(=O)C[C@H]21`, the cytotoxicity at 70.5 h came to 15.1%.

Take `CN(Cc1csc(-c2cccs2)n1)C(=O)CN1CCOC1=O`: the cytotoxicity at 70.5 h is -3.58%.

Turning to `Cc1nn(C)cc1C(=O)N1CCCN(C2Cc3ccccc3C2)CC1`, the cytotoxicity at 70.5 h was 14.3%.

For the molecule `CS(=O)(=O)c1ccc(CN2C[C@H]3CC[C@@H]2CN(c2ncccn2)C3)cc1`, the cytotoxicity at 70.5 h was -5.94%.

Turning to `COC(=O)c1cccc(CN(C)C(C)c2ccccn2)c1` (stereo unspecified), the cytotoxicity at 70.5 h is -24.9%.

Turning to `COc1ccccc1C(=O)N1CCN(C(=O)CCCc2cn[nH]c2)CC1`, the cytotoxicity at 70.5 h is -6.9%.

As to `CCn1nc(C)cc1C(=O)N1CCCN(CCCc2ccccc2)CC1`, the cytotoxicity at 70.5 h was determined as 1.03%.

Take `Cc1cc(C(=O)N(C)Cc2nc(-c3ccccn3)no2)c(C)o1`: the cytotoxicity at 70.5 h was -4.74%.

For `CNc1ncc(C(=O)N2CCC(CCc3ccccc3)CC2)cn1`, the cytotoxicity at 70.5 h came to 13.7%.

For the molecule `CCCN1CCN(Cc2cccc(OCC(N)=O)c2)[C@H]2CS(=O)(=O)C[C@H]21`, the cytotoxicity at 70.5 h was found to be 0.755%.

For the molecule `CCOc1ncccc1CN1Cc2ncccc2C1=O`, the cytotoxicity at 70.5 h was -6.82%.

`CCn1cncc1Cn1ncc2ccccc2c1=O`: the cytotoxicity at 70.5 h is -7.38%.

For the molecule `CCN1CCCC2(CCN(Cc3nnc(C4CC4)o3)C2)C1=O` (stereo unspecified), the cytotoxicity at 70.5 h worked out at 0.731%.

For `CC(C)Cn1c(=O)n(CCCn2cccn2)c2cc(C(=O)O)cnc21`, the cytotoxicity at 70.5 h is -10.8%.

For the molecule `CC[C@@]1(O)CCN(C(=O)c2ccc(CN3CCCCCC3)cc2)C[C@H]1O`, the cytotoxicity at 70.5 h was -3.75%.

With `CN(Cc1cccc(-n2cccn2)c1)C(=O)c1cccc(N(C)C)c1`, the cytotoxicity at 70.5 h is -10.6%.

In the case of `CCCc1nnc(NC2CCN(C3CCOCC3)CC2)o1`, the cytotoxicity at 70.5 h is -9.47%.

As for `CN(Cc1cc[nH]n1)C(C(=O)O)c1ccc(Cl)cc1` (stereo unspecified), the cytotoxicity at 70.5 h is -4.85%.

For `COc1ncccc1C1CC(=O)NCc2nc3sccn3c21` (stereo unspecified), the cytotoxicity at 70.5 h was -12.8%.

Consider `COc1ccccc1N1CCN(C(=O)CCn2nnnc2C)CC1(C)C`, for which the cytotoxicity at 70.5 h came to 19.3%.

For the molecule `O=C1O[C@@H]2CN(C3CCOCC3)C[C@@H]2N1CCCc1ccc(F)cc1`, the cytotoxicity at 70.5 h was 14.2%.

For the molecule `Cc1cc(CN(C)C(C(=O)O)c2ccc(C(C)(C)C)cc2)on1` (stereo unspecified), the cytotoxicity at 70.5 h is -5.92%.

As to `Nc1cc(-c2cccc3c2CCNC3)ncn1`, the cytotoxicity at 70.5 h was -6.17%.

As for `Cc1ccc(CCNc2nc(-c3ccncc3)nc3c2CCNCC3)o1`, the cytotoxicity at 70.5 h is 2.56%.

Consider `CC(C)Cc1cc(C(=O)N2CC(OCc3ccccc3F)C2)n(C)n1`, for which the cytotoxicity at 70.5 h was -2.8%.

Consider `COc1cccc(C(=O)N2CCc3c(nc(N)[nH]c3=O)C2)c1OC`, for which the cytotoxicity at 70.5 h is -2.24%.

Turning to `CS(=O)(=O)CCN1CC(c2ccccc2)(c2ccccc2)CCC1=O`, the cytotoxicity at 70.5 h is 22.9%.

With `Cc1ncsc1-c1nc(CC2CCN(C)CC2)nn1Cc1ccccc1`, the cytotoxicity at 70.5 h was 8.01%.

For `COc1ccc([C@@H]2CN(C(=O)CS(C)(=O)=O)C[C@H]2NC(C)=O)cc1`, the cytotoxicity at 70.5 h is -2.94%.

In the case of `CNC(=O)[C@@H]1C[C@@H](N)CN1c1nnc(-c2ccccc2)s1`, the cytotoxicity at 70.5 h is -4.95%.

For the molecule `CCn1ncnc1C(C)NC(=O)COc1ccc(Cl)cc1Cl` (stereo unspecified), the cytotoxicity at 70.5 h was -10.4%.

In the case of `Cc1nn(C)c(C)c1C(C(=O)O)N1CCc2ccccc2C1` (stereo unspecified), the cytotoxicity at 70.5 h was found to be 0.959%.

With `CC(=O)NCc1cccc(-n2ccnc2-c2cccc(C(=O)O)c2)c1`, the cytotoxicity at 70.5 h amounted to 16.6%.

Consider `CSc1nc(C)cc(N2CCC(c3ncc[nH]3)CC2)n1`, for which the cytotoxicity at 70.5 h is -2.3%.

Regarding `CN(CCCOc1ccccc1Cl)C(=O)CN1C[C@@H]2CC[C@H](CC1=O)N2`, the cytotoxicity at 70.5 h was -2.68%.

In the case of `CN(C)CC(c1ccccc1)N(C)C(=O)c1cccc(NCC(=O)O)c1` (stereo unspecified), the cytotoxicity at 70.5 h was -0.106%.

As for `CSc1ccccc1NC(=O)N1C[C@@H](N(C)C)[C@H](c2ccc(C)cc2)C1`, the cytotoxicity at 70.5 h is -13.9%.
